Consider 16 compounds from patent publication US20110038885A1, “CHEMOKINE ANALOGS” (priority 2007, published 2011).

Broadly, the EC50 is the concentration at which the effect is half-maximal.

Numbered stars: 1 amine (or outer) side, 2 acyl side, 3 side chain; on linkers, the order of the positions; unused ones are H or OH. Bridge positions count the residues as written; N and C are the ends. Square brackets hold non-standard residues; d marks the D form. Peptide text beside a SMILES is read from it. * marks the point of attachment. Benzoyl(4-Ph) = O=C(c1ccc(-c2ccccc2)cc1)*; NH(CH2)8CO = O=C(CCCCCCCCN[*:1])[*:2]; X3 = O=C(/C=C/c1ccc(Cl)cc1)*; Lauroyl = CCCCCCCCCCCC(=O)*; Isobutyryl = CC(C)C(=O)*; Octanoyl = CCCCCCCC(=O)*; Dab = NCC[C@H](N)C(=O)O; Dap = NC[C@H](N)C(=O)O; Aoc = NCCCCCCCC(=O)O; GABA = NCCCC(=O)O; βAla = NCCC(=O)O

One assay has as its system IL-8. As to the kind of experiment: In vitro chemotaxis, inhibition v IL-8. The format is cell-based, human. Further details: concentration or dose not given beside the values. As to the method: To determine whether an agent inhibits a chemokine-induced activity, such as macrophage recruitment, varying amounts of the agent are mixed with cells in the presence of a known chemoattractant. For example, a range of known concentrations of an agent, e.g., a chemokine peptide, is incubated with a defined number (e.g., 10^4-10^6) of human THP-1 monocyte cells in individual wells of the top compartment of a trans-well plate. Chemokine, at a concentration known to cause significant migration of THP-1 cells in the trans-well migration assay, is placed in the lower compartment of a trans-well plate. Cells are then incubated at 37° C. for a period sufficient to allow migration, e.g., 4 hours. After incubation, the cells are gently removed from the top of the filter with a pipette, 20 μl of 20 mM EDTA in simple PBS is added into each top well, and incubated for 20 minutes at 4° C. The filter is carefully flushed with media using a gentle flow, and removed. A standard curve consisting of a two-fold dilution series of THP-1 cells (in 29 μl) is placed to accurately quantify the number of cells that have migrated. Migrated cells are stained with 3 μl of MTT stock dye solution which is added directly into each well (5 mg/ml in RPMI-1640 without phenol red) (Sigma Chemical Co., St. Louis, Mo., USA) and incubated at 37° C. for 4 hours. The media is carefully aspirated from each well, and the converted dye is solubilized by 20 μl of DMSO. Absorbance of converted dye is measured at a wavelength of 595 nm using an ELISA plate reader. The number of migrated cells in each well is then determined by interpolation of the standard curve (see also Imai et al., J. Biol. Chem., 272:15036, 1997). Any method suitable for counting cells can be used, for example, counting with a hemocytometer, incubation of the cells with MTT (see above), or FACS analysis. A negative control assay is also performed, using TGFβ or another non-chemokine chemoattractant (e.g., IL1β or TNFα). To assess whether the agent is cytotoxic, the same concentrations of agent are incubated with THP-1 cells. Agents which 1) are not cytotoxic at levels which inhibit migration, 2) are ineffective at inhibiting the negative control-induced migration, and 3) reduce or inhibit chemokine-induced THP-1 migration, are agents which fall within the scope of the invention.

In another assay the test system is MCP-1. The assay is described as follows: In vitro chemotaxis (trans-well migration) v MCP-1. It is filed as cell-based, human. In short, it runs like this:
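Trans-well migration toward IL-8 or MCP-1 placed below, with agent added to THP-1 cells (10^4-10^6) in the top well and incubation at 37° C (e.g. 4 hours). MTT absorbance at 595 nm, interpolated on a cell standard curve, gives migrated cell numbers; TGFβ-type negative control and cytotoxicity check included.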

For the compound `CC[C@@H](C)[C@H]1NC(=O)[C@@H](CCC(N)=O)NC(=O)[C@H](N)CSSC[C@H](C(=O)NCCCCCCCC(=O)O)NC(=O)[C@@H](CC(C)C)NC(=O)[C@@H](CC(=O)O)NC(=O)[C@H]2CCCN2C(=O)[C@@H](CCCCN)NC(=O)[C@@H](CCC(N)=O)NC(=O)[C@@H](CCCCN)NC(=O)[C@@H](Cc2c[nH]c3ccccc23)NC1=O` [Example 139, c(D-Cys-D-Gln-D-Ile-D-Trp-D-Lys-D-Gln-D-Lys-D-Pro-D-Asp-D-Leu-D-Cys)-Aoc-OH] (H-[dC][dQ][dI][dW][dK][dQ][dK][dP][dD][dL][dC][Aoc]-OH; disulfide 1-11), in the assay with IL-8, the “v IL-8 inhibition (%)” value is given as 47.0%. Moreover, the midpoint of the response in the assay with MCP-1, the EC50, lay at 100 nM.
Consider `CCCCCCCC(=O)N[C@@H](CN)C(=O)N[C@@H]1CSSC[C@H](C(N)=O)NC(=O)[C@@H](CC(C)C)NC(=O)[C@@H](CC(=O)O)NC(=O)[C@H]2CCCN2C(=O)[C@@H](CCCCN)NC(=O)[C@@H](CCC(N)=O)NC(=O)[C@@H](CCCCN)NC(=O)[C@@H](Cc2c[nH]c3ccccc23)NC(=O)[C@@H]([C@H](C)CC)NC(=O)[C@@H](CCC(N)=O)NC1=O` [Example 160, Octanoyl-Dap-c(D-Cys-D-Gln-D-Ile-D-Trp-D-Lys-D-Gln-D-Lys-D-Pro-D-Asp-D-Leu-D-Cys)-NH2] (Octanoyl-[Dap][dC][dQ][dI][dW][dK][dQ][dK][dP][dD][dL][dC]-NH2; disulfide 2-12), for which the “v IL-8 inhibition (%)” value in the assay with IL-8 is recorded as 100.2%. This compound showed an EC50 in the assay with MCP-1 of 25 nM.
For `CC[C@H](C)[C@@H]1NC(=O)[C@H](Cc2c[nH]c3ccccc23)NC(=O)[C@H](CCCCN)NC(=O)[C@H](CCC(N)=O)NC(=O)[C@H](CCCCN)NC(=O)[C@@H]2CCCN2C(=O)[C@H](CC(=O)O)NC(=O)[C@H](CC(C)C)NC(=O)[C@@H](NC(C)=O)CSSC[C@@H](C(=O)N[C@@H](CCN)C(N)=O)NC(=O)[C@H](CCC(N)=O)NC1=O` [Example 18, Ac-c(Cys-Leu-Asp-Pro-Lys-Gln-Lys-Trp-Ile-Gln-Cys)-Dab-NH2] (Ac-CLDPKQKWIQC[Dab]-NH2; disulfide 1-11), in that order: 103.5% and 20 nM.
For the compound `CC[C@H](C)[C@@H]1NC(=O)[C@H](Cc2c[nH]c3ccccc23)NC(=O)[C@H](CCCCN)NC(=O)[C@@H](NC(=O)[C@H](CCC(N)=O)NC(=O)[C@H](CCCCN)NC(=O)[C@@H]2CCCN2C(=O)[C@H](CC(=O)O)NC(=O)[C@H](CC(C)C)NC(C)=O)CSSC[C@@H](C(N)=O)NC(=O)[C@H](CCC(N)=O)NC1=O` [Example 23, Ac-Leu-Asp-Pro-Lys-Gln-c(Cys-Lys-Trp-Ile-Gln-Cys)-NH2] (Ac-LDPKQCKWIQC-NH2; disulfide 6-11), the “v IL-8 inhibition (%)” value in the assay on IL-8 turned out to be 13.4%. The 50% effective concentration (EC50) in the assay with MCP-1 was more than 1000 nM.
For `CC[C@H](C)[C@@H]1NC(=O)[C@H](Cc2c[nH]c3ccccc23)NC(=O)[C@H](CCCCN)NC(=O)[C@H](CCC(N)=O)NC(=O)[C@H](CCCCN)NC(=O)[C@@H]2CCCN2C(=O)[C@H](CC(=O)O)NC(=O)[C@H](CC(C)C)NC(=O)[C@H](N)CSSC[C@H](C(N)=O)NC(=O)[C@H](CCC(N)=O)NC1=O` [Example 37, c(D-Cys-Leu-Asp-Pro-Lys-Gln-Lys-Trp-Ile-Gln-D-Cys)-NH2] (H-[dC]LDPKQKWIQ[dC]-NH2; disulfide 1-11), in that order: −14.7% and more than 1000 nM.
For `CC[C@H](C)[C@@H]1NC(=O)[C@H](Cc2c[nH]c3ccccc23)NC(=O)[C@H](CCCCN)NC(=O)[C@@H](NC(=O)[C@H](CCC(N)=O)NC(=O)[C@H](CCCCN)NC(=O)[C@@H]2CCCN2C(=O)[C@H](CC(=O)O)NC(=O)[C@@H](N)CC(C)C)CSSC[C@@H](C(N)=O)NC(=O)[C@H](CCC(N)=O)NC1=O` [Example 12, Leu-Asp-Pro-Lys-Gln-c(Cys-Lys-Trp-Ile-Gln-Cys)-NH2] (H-LDPKQCKWIQC-NH2; disulfide 6-11), in that order: 94.8% and 50 nM.
For `CC[C@H](C)[C@@H]1NC(=O)[C@H](Cc2c[nH]c3ccccc23)NC(=O)[C@H](CCCCN)NC(=O)[C@H](CCC(N)=O)NC(=O)[C@H](CCCCN)NC(=O)[C@@H]2CCCN2C(=O)[C@H](CC(=O)O)NC(=O)[C@H](CC(C)C)NC(=O)[C@@H](NC(=O)[C@@H](CC(=O)O)NC(=O)[C@H](N)CCCCN)CSSC[C@@H](C(N)=O)NC(=O)[C@H](CCC(N)=O)NC1=O` [Example 167, D-Lys-D-Asp-c(Cys-Leu-Asp-Pro-Lys-Gln-Lys-Trp-Ile-Gln-Cys)-NH2] (H-[dK][dD]CLDPKQKWIQC-NH2; disulfide 3-13), in that order: 99.6% and 25 nM.
On to `CC[C@@H](C)[C@H]1NC(=O)[C@@H](CCC(N)=O)NC(=O)[C@H](N)CSSC[C@H](C(=O)NCCCC(=O)O)NC(=O)[C@@H](CC(C)C)NC(=O)[C@@H](CC(=O)O)NC(=O)[C@H]2CCCN2C(=O)[C@@H](CCCCN)NC(=O)[C@@H](CCC(N)=O)NC(=O)[C@@H](CCCCN)NC(=O)[C@@H](Cc2c[nH]c3ccccc23)NC1=O` [Example 142, c(D-Cys-D-Gln-D-Ile-D-Trp-D-Lys-D-Gln-D-Lys-D-Pro-D-Asp-D-Leu-D-Cys)-Gaba-OH] (H-[dC][dQ][dI][dW][dK][dQ][dK][dP][dD][dL][dC][GABA]-OH; disulfide 1-11), for which the “v IL-8 inhibition (%)” value in the assay with IL-8 came to 107.3%. Further, the EC50 in the assay with MCP-1 amounted to 20 nM.
In the assay with MCP-1, `CC[C@H](C)[C@@H]1NC(=O)[C@H](Cc2c[nH]c3ccccc23)NC(=O)[C@H](CCCCN)NC(=O)CCNC(=O)CC[C@@H](C(N)=O)NC(=O)[C@H](CCC(N)=O)NC1=O` [Example 89, c((βAla-Lys-Trp-Ile-Gln-Glu)-NH2] ([βAla]KWIQE-NH2; lactam N-6) registered an EC50 of 20 nM.
On the same count and under the same terms, under `CC[C@@H](C)[C@H]1NC(=O)[C@@H](CCC(N)=O)NC(=O)CCNC(=O)C[C@H](C(N)=O)NC(=O)[C@@H](CC(C)C)NC(=O)[C@@H](CC(=O)O)NC(=O)[C@H]2CCCN2C(=O)[C@@H](CCCCN)NC(=O)[C@@H](CCC(N)=O)NC(=O)[C@@H](CCCCN)NC(=O)[C@@H](Cc2c[nH]c3ccccc23)NC1=O` [Example 199, c(βAla-D-Gln-D-Ile-D-Trp-D-Lys-D-Gln-D-Lys-D-Pro-D-Asp-D-Leu-D-Asp)-NH2] ([βAla][dQ][dI][dW][dK][dQ][dK][dP][dD][dL][dD]-NH2; lactam N-11) stands 20 nM.
For the compound `CC[C@H](C)[C@@H]1NC(=O)[C@H](Cc2c[nH]c3ccccc23)NC(=O)[C@H](CCCCN)NC(=O)CCCCCCCCNC(=O)C[C@@H](C(N)=O)NC(=O)[C@H](CCC(N)=O)NC1=O` [Example 97, c(Anc-Lys-Trp-Ile-Gln-Asp)-NH2] ([NH(CH2)8CO]KWIQD-NH2; lactam N-6), the EC50 in the assay with MCP-1 worked out at 15 nM.
In the assay with MCP-1, `CC[C@H](C)[C@@H]1NC(=O)[C@H](Cc2c[nH]c3ccccc23)NC(=O)[C@H](CCCCN)NC(=O)[C@@H](NC(=O)C(C)C)CCCCNC(=O)C[C@@H](C(N)=O)NC(=O)[C@H](CCC(N)=O)NC1=O` [Example 106, Isobutyryl-c(Lys-Lys-Trp-Ile-Gln-Asp)-NH2] (Isobutyryl-KKWIQD-NH2; lactam 1-6) had an EC50 of 8 nM.
In the assay with MCP-1, `CCCCCCCCCCCC(=O)N[C@H]1CSSC[C@@H](C(N)=O)NC(=O)[C@H](CCC(N)=O)NC(=O)[C@H]([C@@H](C)CC)NC(=O)[C@H](Cc2c[nH]c3ccccc23)NC(=O)[C@H](CCCCN)NC1=O` [Example 84, Dodecanoyl-c(Cys-Lys-Trp-Ile-Gln-Cys)-NH2] (Lauroyl-CKWIQC-NH2; disulfide 1-6) returned an EC50 of 15 nM.
In the assay on MCP-1, `CC[C@H](C)[C@@H]1NC(=O)[C@H](Cc2c[nH]c3ccccc23)NC(=O)[C@H](CCCCN)NC(=O)[C@@H](NC(=O)C(C)C)CCC(=O)NCC[C@@H](C(N)=O)NC(=O)[C@H](CCC(N)=O)NC1=O` [Example 101, Isobutyryl-c(Glu-Lys-Trp-Ile-Gln-Dab)-NH2] (Isobutyryl-EKWIQ[Dab]-NH2; lactam 1-6) returned an EC50 of 4 nM.
On the same count and under the same terms, under `CC[C@H](C)[C@@H]1NC(=O)[C@H](Cc2c[nH]c3ccccc23)NC(=O)[C@H](CCCCN)NC(=O)[C@@H](NC(=O)/C=C/c2ccc(Cl)cc2)CSSC[C@@H](C(N)=O)NC(=O)[C@H](CCC(N)=O)NC1=O` [Example 73, 4-Chlorocinnamoyl-c(Cys-Lys-Trp-Ile-Gln-Cys)-NH2] (X3-CKWIQC-NH2; disulfide 1-6) stands 10 nM.
In turn, `CC[C@H](C)[C@@H]1NC(=O)[C@H](Cc2c[nH]c3ccccc23)NC(=O)[C@H](CCCCN)NC(=O)[C@@H](NC(=O)c2ccc(-c3ccccc3)cc2)CSSC[C@@H](C(N)=O)NC(=O)[C@H](CCC(N)=O)NC1=O` [Example 67, 4-Biphenylcarboxyl-c(Cys-Lys-Trp-Ile-Gln-Cys)-NH2] ({Benzoyl(4-Ph)}-CKWIQC-NH2; disulfide 1-6) showed a half-maximal effective concentration (EC50) with MCP-1 of 8 nM.
